The record followed here is patent US9889115B2, “Fitness assay and associated methods” (priority 1998, dated 2018).

Test [1] has as its system multidrug-resistant HIV-1 clinical isolate, patient 32. The test can be described thus: microbe, parasite or virus in culture. The format is cell-based. The following applies: Human immunodeficiency virus 1; Patient Isolate 32. As for the experimental part: (§1) The mutant multidrug-resistant HIV-1 strains corresponding to each patient, numbered 9-35, were genetically analyzed in terms of the nucleic acid sequences of the protease (PR) and a portion of the reverse transcriptase (RT) genes from which mutations in these enzymes were determined. The mutations in the protease and reverse transcriptase of the multidrug-resistant viruses isolated from each patient are shown below in Table 9b.

The subject of test [2] is multidrug-resistant HIV-1 clinical isolate, patient 18. The test can be described thus: microbe, parasite or virus in culture. The format is cell-based. The note with it: Human immunodeficiency virus 1; Patient Isolate 18. The procedure:
as §1

The test system of test [3] is multidrug-resistant HIV-1 clinical isolate, patient 15. As to the kind of experiment: microbe, parasite or virus in culture. The format is cell-based. The following applies: Human immunodeficiency virus 1; Patient Isolate 15. The procedure:
as §1

Test [4] deals with multidrug-resistant HIV-1 clinical isolate, patient 19. As to the kind of experiment: microbe, parasite or virus in culture. The class given is cell-based. The following applies: Human immunodeficiency virus 1; Patient Isolate 19. As for the experimental part: as §1
For test [5], the system named is multidrug-resistant HIV-1 clinical isolate, patient 13. The test can be described thus: microbe, parasite or virus in culture. The class given is cell-based. The following applies: Human immunodeficiency virus 1; Patient Isolate 13. The procedure: as §1
The test system of test [6] is multidrug-resistant HIV-1 clinical isolate, patient 9. As to the kind of experiment: microbe, parasite or virus in culture. The class given is cell-based. The following applies: Human immunodeficiency virus 1; Patient Isolate 9. The procedure:
as §1

Test [7] concerns multidrug-resistant HIV-1 clinical isolate, patient 11. The test can be described thus: microbe, parasite or virus in culture. The format is cell-based. The note with it: Human immunodeficiency virus 1; Patient Isolate 11. The procedure:
as §1

Test [8] deals with multidrug-resistant HIV-1 clinical isolate, patient 27. The test can be described thus: microbe, parasite or virus in culture. The format is cell-based. The following applies: Human immunodeficiency virus 1; Patient Isolate 27. As for the experimental part:
as §1

Test [9] deals with multidrug-resistant HIV-1 clinical isolate, patient 29. The test can be described thus: microbe, parasite or virus in culture. The format is cell-based. The following applies: Human immunodeficiency virus 1; Patient Isolate 29. The procedure: as §1
Test [10] has as its system multidrug-resistant HIV-1 clinical isolate, patient 17. As to the kind of experiment: microbe, parasite or virus in culture. The following applies: Human immunodeficiency virus 1; Patient Isolate 17. The class given is cell-based. As for the experimental part:
as §1

The test system of test [11] is multidrug-resistant HIV-1 clinical isolate, patient 12. The test can be described thus: microbe, parasite or virus in culture. The format is cell-based. The following applies: Human immunodeficiency virus 1; Patient Isolate 12. As for the experimental part:
as §1

Test [12] concerns multidrug-resistant HIV-1 clinical isolate, patient 16. As to the kind of experiment: microbe, parasite or virus in culture. The class given is cell-based. The following applies: Human immunodeficiency virus 1; Patient Isolate 16. As for the experimental part:
as §1

Test [13] concerns multidrug-resistant HIV-1 clinical isolate, patient 10. The test can be described thus: microbe, parasite or virus in culture. The class given is cell-based. The following applies: Human immunodeficiency virus 1; Patient Isolate 10. As for the experimental part:
as §1

Test [14] deals with multidrug-resistant HIV-1 clinical isolate, patient 28. The test can be described thus: microbe, parasite or virus in culture. The note with it: Human immunodeficiency virus 1; Patient Isolate 28. The format is cell-based. The procedure: as §1
Test [15] has as its system multidrug-resistant HIV-1 clinical isolate, patient 20. As to the kind of experiment: microbe, parasite or virus in culture. The class given is cell-based. The note with it: Human immunodeficiency virus 1; Patient Isolate 20. The procedure: as §1
Test [16] concerns multidrug-resistant HIV-1 clinical isolate, patient 14. The test can be described thus: microbe, parasite or virus in culture. The class given is cell-based. The note with it: Human immunodeficiency virus 1; Patient Isolate 14. As for the experimental part:
as §1

Test [17] relates to multidrug-resistant HIV-1 clinical isolate, patient 33. The test can be described thus: microbe, parasite or virus in culture. The format is cell-based. The note with it: Human immunodeficiency virus 1; Patient Isolate 33. As for the experimental part: as §1
In test [18] the test system is multidrug-resistant HIV-1 clinical isolate, patient 23. The test can be described thus: microbe, parasite or virus in culture. The format is cell-based. The following applies: Human immunodeficiency virus 1; Patient Isolate 23. As for the experimental part:
as §1

In test [19] the test system is multidrug-resistant HIV-1 clinical isolate, patient 30. As to the kind of experiment: microbe, parasite or virus in culture. The class given is cell-based. The note with it: Human immunodeficiency virus 1; Patient Isolate 30. As for the experimental part:
as §1

For test [20], the system named is multidrug-resistant HIV-1 clinical isolate, patient 35. As to the kind of experiment: microbe, parasite or virus in culture. The following applies: Human immunodeficiency virus 1; Patient Isolate 35. The format is cell-based. As for the experimental part: as §1
The test system of test [21] is multidrug-resistant HIV-1 clinical isolate, patient 31. As to the kind of experiment: microbe, parasite or virus in culture. The class given is cell-based. The note with it: Human immunodeficiency virus 1; Patient Isolate 31. As for the experimental part: as §1
Test [22] has as its system HIV-1BAL. The test can be described thus: PHA-PBMC assay, p24 Gag protein production. The class given is cell-based.
The test system of test [23] is multidrug-resistant HIV-1 clinical isolate, patient 22. As to the kind of experiment: IC50 against multidrug-resistant clinical isolates (Table 9a). The format is cell-based. The following applies: Human immunodeficiency virus 1. As for the experimental part: as §1
Test [24] relates to multidrug-resistant HIV-1 clinical isolate, patient 34. The description is as above. The format is cell-based. The following applies: Human immunodeficiency virus 1. As for the experimental part:
as §1

Test [25] has as its system HIV-1LAI. As to the kind of experiment: PHA-PBMC assay, p24 Gag protein production. The format is cell-based. The following applies: HIV-1LAI.
Test [26] deals with multidrug-resistant HIV-1 clinical isolate, patient 4. The test can be described thus: PHA-PBMC assay, p24 Gag protein production. The class given is cell-based. The following applies: Human immunodeficiency virus 1; Patient/Isolate code 4; PHA-PBMC, p24. As for the experimental part: (§2) The patient profiles are shown below in Table 2.
(§3) To determine protease inhibitory activity against multidrug resistant HIV, the IC50's were measured against a panel of clinically isolated mutant HIV isolates.
(§4) All drug sensitivities were performed in triplicate. In order to determine whether the HIV isolates were syncitium inducing (SI) or non-syncitium inducing (NSI), an aliquot of viral stock supernatant, containing 100 TCID50, was cultured with 1×10^5 MT-2 cells in a 12-well plate. Cultures were maintained for four weeks and were examined for syncytium formation twice a week.

Test [27] has as its system multidrug-resistant HIV-1 clinical isolate, patient 8. The test can be described thus: PHA-PBMC assay, p24 Gag protein production. The format is cell-based. The note with it: Human immunodeficiency virus 1; Patient/Isolate code 8; PHA-PBMC, p24. As for the experimental part:
as §2, §3, §4

Test [28] relates to multidrug-resistant HIV-1 clinical isolate, patient 3. The test can be described thus: PHA-PBMC assay, p24 Gag protein production. The class given is cell-based. The note with it: Human immunodeficiency virus 1; Patient/Isolate code 3; PHA-PBMC, p24. As for the experimental part: as §2, §3, §4
For test [29], the system named is multidrug-resistant HIV-1 clinical isolate, patient 7. As to the kind of experiment: PHA-PBMC assay, p24 Gag protein production. The format is cell-based. The note with it: Human immunodeficiency virus 1; Patient/Isolate code 7; PHA-PBMC, p24. The procedure:
as §2, §3, §4

Test [30] deals with HIV-1ERS104pre. The test can be described thus: PHA-PBMC assay, p24 Gag protein production. The format is cell-based. The following applies: Human immunodeficiency virus 1; HIV-1ERS104pre, SI; PHA-PBMC, p24. The procedure: as §2, §3, §4
Test [31] deals with multidrug-resistant HIV-1 clinical isolate, patient 1. The test can be described thus: PHA-PBMC assay, p24 Gag protein production. The class given is cell-based. The following applies: Human immunodeficiency virus 1; Patient/Isolate code 1; PHA-PBMC, p24. As for the experimental part:
as §2, §3, §4

In test [32] the test system is multidrug-resistant HIV-1 clinical isolate, patient 2. The test can be described thus: PHA-PBMC assay, p24 Gag protein production. The format is cell-based. The following applies: Human immunodeficiency virus 1; Patient/Isolate code 2; PHA-PBMC, p24. The procedure:
as §2, §3, §4

The test system of test [33] is multidrug-resistant HIV-1 clinical isolate, patient 6. As to the kind of experiment: PHA-PBMC assay, p24 Gag protein production. The format is cell-based. The following applies: Human immunodeficiency virus 1; Patient/Isolate code 6; PHA-PBMC, p24. As for the experimental part:
as §2, §3, §4

Test [34] concerns multidrug-resistant HIV-1 clinical isolate, patient 5. The test can be described thus: PHA-PBMC assay, p24 Gag protein production. The class given is cell-based. The following applies: Human immunodeficiency virus 1; Patient/Isolate code 5; PHA-PBMC, p24. The procedure: as §2, §3, §4
Test [35] has as its system wild-type HIV-1 (WT). As to the kind of experiment: IC50 against wild-type HIV-1 (Table 9a). The format is cell-based. The note with it: Human immunodeficiency virus 1; (WT).
Test [36] addresses T1, wild-type HIV-1 (WT) protease (Human immunodeficiency virus type 1 group M subtype B, UniProt P04585).
T1 construct: the proteases of wild-type HIV-1 (WT)
The test can be described thus: continuous fluorogenic HIV protease assay. The format is biochemical. The note with it: WT (Table 7). The procedure: This example describes the protocol for the sensitive continuous fluorogenic assay for HIV protease of the present invention and its application. […] The inhibition constant for wild-type HIV-1, Kimnt/Kiwt ratio, and vitality were measured.
The reaction was initiated by the addition of 5 μl of substrate stock solution in water. […] The initial rate of hydrolysis was calculated by second degree polynomial fit using SLM AB2 2.0 operating software.
For inhibition studies, inhibitors were prepared as stock solutions at different concentrations in dimethylsulfoxide. […] The reaction was initiated by the addition of 5 μl of substrate stock solution in water. For data analysis, the mathematical model for tight-binding inhibitors was used.

Test [37] deals with HIV-1LAI. The test can be described thus: MT-2 cells, MTT assay. The format is cell-based. The note with it: HIV-1LAI; MT-2/MTT, day 7. The procedure:
All drug sensitivities were performed in triplicate. […] The IC50's were determined using the MTT assay on day 7 of culture. All sensitivities were determined in […].

pIC50, pKi: −log10 of the molar value. Some results are limits rather than exact numbers.

With `CC(C)(C)NC(=O)[C@@H]1CN(Cc2cccnc2)CCN1C[C@@H](O)C[C@@H](Cc1ccccc1)C(=O)N[C@H]1c2ccccc2C[C@H]1O` [IDV, Indinavir], the pIC50 is 6.65 in [1]; 6.43 in test [2]; 6.58 in [3]; 6.11 in test [4]; less than 5.90 in test [5]; 5.96 in test [6]. The negative logarithm of the IC50 (pIC50) in test [7] is 7.92; in test [8], less than 5.90; in test [9] it was 6.24; in test [10], 6.30; in test [11] it was less than 5.90; in test [12], 6.42. In addition, the negative logarithm of the IC50 (pIC50) in test [13] was less than 5.90; in [14] it was 5.98; in test [15] it was 6.23; in test [16], 7.05; in test [17], 6.88; in test [18] it was 6.34. For the same molecule, the negative logarithm of the IC50 (pIC50) is 6.57 in test [19]; 6.29 in test [20]; 6.60 in test [21]; 8.25 in [22] (Human immunodeficiency virus 1, HIV-1BAL, NSI, PHA-PBMC, p24 (Table 3)); 6.76 in [23]; 6.23 in [24]. Further, the pIC50 is 7.72 in test [25] (Human immunodeficiency virus 1, SI, PHA-PBMC, p24 (Table 3)); 6.62 in test [26]; less than 6.00 in test [27]; 6.34 in test [28]; less than 6.00 in [29]; 7.89 in test [30]. Moreover, the negative logarithm of the IC50 (pIC50) in test [31] was less than 6.00; in [32], 6.62; in [33], 6.43; in test [34] it was 6.10; in [35], 7.70.
For `CC(C)CN(C[C@@H](O)[C@H](Cc1ccccc1)NC(=O)O[C@H]1CO[C@H]2OCC[C@H]21)S(=O)(=O)c1ccc(CN)cc1` [Compound 35], the pIC50 in test [22] (HIV-1Ba-L, PBMC/p24, day 7 (Table 8)) is 7.89; in test [25] (PBMC/p24, day 7 (Table 8)), 7.70; in test [37], 7.55. Besides, in test [36], the KI-wt/KI-mut came out at 1. The molecule also showed a pKi in test [36] of 10.09.
